Results: patent US20250197374A1, “WEE1 DEGRADING COMPOUNDS AND USES THEREOF” (BRISTOL-MYERS SQUIBB COMPANY, priority 2023, published 2025)

What was measured:
Assay type in all cases: cell-based
MDA-MB-231 cells = test: MDA-MB-231 cell proliferation assay (Cell-Titer-Glo, 120 hr); conditions: for EC50: Homo sapiens, MDA-MB-231, 120 h, read-out: MDA-MB 231 Cell Prolif. 120 hr EC50; for MDA-MB 231 Cell Prolif. 120 hr YMin (%): minimal percent of DMSO control observed
Method in brief: (§1)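 Growth inhibition was read as CellTiter-Glo luminescence after 120 h at 37 °C in RPMI/10% FBS, with 400 MKN45 or 800 MDA-MB-231 cells seeded per well. Compounds were tested in 10-point half-log series starting at 1 or 10 uM (0.1% DMSO), in triplicate for MKN45 and duplicate for MDA-MB-231. EC50 values are four-parameter fits to %DMSO control, and Ymin-obs is the minimal observed %DMSO.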

MKN45 cells = test: MKN45 cell proliferation assay (Cell-Titer-Glo, 120 hr); conditions: for EC50: Homo sapiens, MKN-45, 120 h, read-out: MKN45 Cell Prolif. 120 hr EC50; for MKN45 Cell Prolif. 120 hr YMin (%): minimal percent of DMSO control observed
Method in brief: as §1

WEE1 = target: T1, WEE1 (Homo sapiens, UniProt P30291+Q96SW2); test: WEE1-ePL degradation assay (293T-LentiX, InCELL Hunter luminescence, 4 hr); conditions: for 293T-LentiX WEE1-ePL Degradation 4 hr YMin (%): lower limit of fit, % of DMSO control signal remaining; for DC50: LentiX-HEK293T cells expressing WEE1-ePL, 4 hr incubation, read-out: 293T-LentiX WEE1-ePL Degradation 4 hr EC50
T1 construct: C-terminal ePL-tagged (DiscoverX, Fremont, CA) full-length WEE1 expression construct; expressed in transfected cells; host or cells: LentiX-HEK293T (Invitrogen), lentivirally transduced; the cells also over-express GSPT1-GN
T1 sequence (P30291 whole entry): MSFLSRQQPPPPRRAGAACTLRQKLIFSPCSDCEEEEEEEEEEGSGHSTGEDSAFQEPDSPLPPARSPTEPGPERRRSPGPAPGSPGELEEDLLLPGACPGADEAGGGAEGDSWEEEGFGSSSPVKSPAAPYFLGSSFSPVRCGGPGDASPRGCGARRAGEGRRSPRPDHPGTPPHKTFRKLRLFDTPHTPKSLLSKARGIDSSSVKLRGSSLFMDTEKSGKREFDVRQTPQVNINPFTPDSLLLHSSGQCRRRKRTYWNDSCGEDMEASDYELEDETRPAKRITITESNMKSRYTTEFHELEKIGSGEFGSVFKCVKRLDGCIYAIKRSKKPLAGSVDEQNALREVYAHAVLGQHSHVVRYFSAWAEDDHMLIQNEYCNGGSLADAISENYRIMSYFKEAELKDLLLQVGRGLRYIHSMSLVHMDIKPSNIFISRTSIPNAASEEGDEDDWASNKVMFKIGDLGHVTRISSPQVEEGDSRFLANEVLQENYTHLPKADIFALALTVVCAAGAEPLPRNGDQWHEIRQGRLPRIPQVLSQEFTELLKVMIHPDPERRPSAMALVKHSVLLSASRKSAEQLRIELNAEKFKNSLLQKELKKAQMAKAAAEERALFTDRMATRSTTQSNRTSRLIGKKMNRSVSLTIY
T1 sequence (Q96SW2 whole entry): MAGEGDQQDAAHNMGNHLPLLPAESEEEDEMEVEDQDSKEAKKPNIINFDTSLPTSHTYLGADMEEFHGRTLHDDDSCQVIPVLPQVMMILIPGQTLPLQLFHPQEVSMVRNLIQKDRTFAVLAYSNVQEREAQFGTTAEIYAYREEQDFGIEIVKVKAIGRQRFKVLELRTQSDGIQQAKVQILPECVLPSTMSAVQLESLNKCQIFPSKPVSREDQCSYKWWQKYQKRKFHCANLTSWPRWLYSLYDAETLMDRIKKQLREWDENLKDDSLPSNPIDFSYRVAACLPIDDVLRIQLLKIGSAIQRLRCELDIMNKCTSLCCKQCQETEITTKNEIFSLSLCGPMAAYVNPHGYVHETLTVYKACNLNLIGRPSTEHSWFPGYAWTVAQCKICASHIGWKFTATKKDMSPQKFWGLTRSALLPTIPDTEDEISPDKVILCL
T1 sequence (Q16531 whole entry partner): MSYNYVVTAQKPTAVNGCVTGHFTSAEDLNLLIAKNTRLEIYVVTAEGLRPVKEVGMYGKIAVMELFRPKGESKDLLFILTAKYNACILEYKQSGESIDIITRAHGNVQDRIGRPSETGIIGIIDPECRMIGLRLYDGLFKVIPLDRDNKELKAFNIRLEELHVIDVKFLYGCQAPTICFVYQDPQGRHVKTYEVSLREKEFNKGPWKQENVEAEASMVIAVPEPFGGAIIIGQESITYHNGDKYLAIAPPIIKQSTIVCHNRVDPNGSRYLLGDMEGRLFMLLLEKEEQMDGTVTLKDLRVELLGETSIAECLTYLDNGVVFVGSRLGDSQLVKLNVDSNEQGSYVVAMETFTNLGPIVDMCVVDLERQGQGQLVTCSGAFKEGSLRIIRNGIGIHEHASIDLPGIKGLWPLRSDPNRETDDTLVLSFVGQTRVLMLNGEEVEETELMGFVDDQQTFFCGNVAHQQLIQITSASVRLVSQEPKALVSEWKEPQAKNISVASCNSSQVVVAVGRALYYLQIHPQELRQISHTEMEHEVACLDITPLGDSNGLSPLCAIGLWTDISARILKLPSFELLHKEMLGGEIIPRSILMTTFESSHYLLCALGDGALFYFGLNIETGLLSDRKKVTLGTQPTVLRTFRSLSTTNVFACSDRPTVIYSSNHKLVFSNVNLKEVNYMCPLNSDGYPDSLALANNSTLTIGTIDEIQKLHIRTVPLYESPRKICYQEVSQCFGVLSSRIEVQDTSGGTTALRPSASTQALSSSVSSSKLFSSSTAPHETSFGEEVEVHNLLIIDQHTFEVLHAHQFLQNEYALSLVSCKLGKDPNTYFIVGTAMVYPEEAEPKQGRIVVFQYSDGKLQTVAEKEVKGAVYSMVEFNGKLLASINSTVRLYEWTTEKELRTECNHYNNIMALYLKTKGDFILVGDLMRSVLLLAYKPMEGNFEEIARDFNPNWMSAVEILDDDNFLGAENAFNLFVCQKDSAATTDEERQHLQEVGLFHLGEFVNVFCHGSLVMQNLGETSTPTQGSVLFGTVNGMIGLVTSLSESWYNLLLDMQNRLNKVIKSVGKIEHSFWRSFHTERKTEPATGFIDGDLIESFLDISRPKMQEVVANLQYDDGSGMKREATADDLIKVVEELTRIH
Method in brief: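 EC50 comes from a four-parameter logistic fit of ePL luminescence (InCELL Hunter), with DMSO control defining Ymax. Compounds ran as 10-point 3-fold dilutions from 1 or 10 µM for 4 h at 37 °C. Cells were HEK293T-LentiX with ePL-tagged full-length WEE1 and over-expressed Cereblon-resistant GSPT1-GN.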

| SMILES | EC50 (MDA-MB-231 cells) [nM] | EC50 (MKN45 cells) [nM] | 293T-LentiX WEE1-ePL Degradation 4 hr YMin (%) (WEE1) | DC50 (WEE1) [nM] | MDA-MB 231 Cell Prolif. 120 hr YMin (%) (MDA-MB-231 cells) | MKN45 Cell Prolif. 120 hr YMin (%) (MKN45 cells) |
| --- | --- | --- | --- | --- | --- | --- |
| COC[C@@H]1CN(Cc2ccc3nc(N4CCN(C5COC5)CC4)ccc3c2)C[C@H]1Oc1ccc2c(c1)CN([C@H]1CCC(=O)NC1=O)C2=O [Example 104, (3S)-3-(5-{[(3S,4S)-4-(methoxymethyl)-1-({2-[4-(oxetan-3-yl)piperazin-1-yl]quinolin-6-yl}methyl)pyrrolidin-3-yl]oxy}-1-oxo-2,3-dihydro-1H-isoindol-2-yl)piperidine-2,6-dione] | 18 | 1 | 21.3 | – | 42.5 | 8.2 |
| COC[C@@H]1CN(Cc2ccc3ccc(N4CCOCC4)nc3c2F)C[C@H]1Oc1ccc2c(c1)CN([C@H]1CCC(=O)NC1=O)C2=O [Example 105, (3S)-3-(5-{[(3S,4S)-1-{[8-fluoro-2-(morpholin-4-yl)quinolin-7-yl]methyl}-4-(methoxymethyl)pyrrolidin-3-yl]oxy}-1-oxo-2,3-dihydro-1H-isoindol-2-yl)piperidine-2,6-dione] | 234 | 87 | 40.7 | 1 | 91.5 | 83.4 |
| COC[C@@H]1CN(Cc2cc(F)c3nc(C(=O)N4CCOCC4)ccc3c2)C[C@H]1Oc1ccc2c(c1)CN([C@H]1CCC(=O)NC1=O)C2=O [Example 106, (3S)-3-(5-{[(3S,4S)-1-{[8-fluoro-2-(morpholine-4-carbonyl)quinolin-6-yl]methyl}-4-(methoxymethyl)pyrrolidin-3-yl]oxy}-1-oxo-2,3-dihydro-1H-isoindol-2-yl)piperidine-2,6-dione] | 18 | 18 | 29.8 | 4 | 50.8 | 11.5 |
| COC[C@@H]1CN(Cc2cc(F)c3nc(CC(C)(C)O)ncc3c2)C[C@H]1Oc1ccc2c(c1)CN([C@H]1CCC(=O)NC1=O)C2=O [Example 107, (3S)-3-(5-{[(3S,4S)-1-{[8-fluoro-2-(2-hydroxy-2-methylpropyl)quinazolin-6-yl]methyl}-4-(methoxymethyl)pyrrolidin-3-yl]oxy}-1-oxo-2,3-dihydro-1H-isoindol-2-yl)piperidine-2,6-dione] | 134 | 13 | 19.5 | 8 | 51.6 | 10.4 |

Continued, in another order:

| EC50 (MDA-MB-231 cells) [nM] | EC50 (MKN45 cells) [nM] | 293T-LentiX WEE1-ePL Degradation 4 hr YMin (%) (WEE1) | DC50 (WEE1) [nM] | SMILES | MDA-MB 231 Cell Prolif. 120 hr YMin (%) (MDA-MB-231 cells) | MKN45 Cell Prolif. 120 hr YMin (%) (MKN45 cells) |
| --- | --- | --- | --- | --- | --- | --- |
| 3100 | 340 | 61.2 | 8 | COC[C@@H]1CN(Cc2ccc3ccc(N4CCOCC4)nc3c2)C[C@H]1Oc1ccc2c(c1)CN([C@H]1CCC(=O)NC1=O)C2=O [Example 108, (3S)-3-(5-{[(3S,4S)-4-(methoxymethyl)-1-{[2-(morpholin-4-yl)quinolin-7-yl]methyl}pyrrolidin-3-yl]oxy}-1-oxo-2,3-dihydro-1H-isoindol-2-yl)piperidine-2,6-dione] | 82.8 | 89.6 |
| 16 | 1 | 27.5 | – | COC[C@@H]1CN(Cc2cc(F)c3ncc(C4CCOCC4)cc3c2)C[C@H]1Oc1ccc2c(c1)CN([C@H]1CCC(=O)NC1=O)C2=O [Example 109, (3S)-3-(5-{[(3S,4S)-1-{[8-fluoro-3-(oxan-4-yl)quinolin-6-yl]methyl}-4-(methoxymethyl)pyrrolidin-3-yl]oxy}-1-oxo-2,3-dihydro-1H-isoindol-2-yl)piperidine-2,6-dione] | 37.3 | 8.7 |
